Source: patent publication US8669247B2, “2,5-disubstituted arylsulfonamide CCR3 antagonists” (Axikin Pharmaceuticals, Inc., priority 2009, dated 2014)

Legend:
CCR3 receptor = molecular target: T1, CCR3 receptor (UniProt P51677); test: CCR3 Receptor Binding Assay ([125I]-labeled human eotaxin/CCL11 displacement on cells); conditions: Free (free form of the compound)
T1 sequence (P51677 1-355): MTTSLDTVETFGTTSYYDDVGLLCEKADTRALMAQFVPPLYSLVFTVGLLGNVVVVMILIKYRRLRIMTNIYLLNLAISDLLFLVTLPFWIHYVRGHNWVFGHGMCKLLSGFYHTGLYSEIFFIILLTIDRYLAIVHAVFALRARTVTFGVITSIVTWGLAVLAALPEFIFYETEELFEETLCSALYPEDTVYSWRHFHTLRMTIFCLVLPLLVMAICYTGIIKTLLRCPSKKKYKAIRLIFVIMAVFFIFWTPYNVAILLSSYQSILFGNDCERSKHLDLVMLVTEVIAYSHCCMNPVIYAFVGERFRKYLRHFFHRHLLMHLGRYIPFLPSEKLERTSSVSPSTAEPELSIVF
Procedure: Cells were washed once with PBS and resuspended in a binding buffer (25 mM HEPES pH 7.6, 5 mM MgCl2, 1 mM CaCl2, 0.5% BSA, 0.1% NaN3), […] of cell suspension (2×10^5 cells/well) and 0.1 nM [^125I]-labeled human eotaxin/CCL11 (2000 Ci/mmol specific activity) were mixed in a 96-well U-bottom polypropylene plate, and incubated for 60 min at room temperature for the binding reaction. The cell suspension was then transferred to a filtration plate (#MAFB, Millipore), and washed 3 times with the binding buffer containing 0.5 M NaCl, scintillant added, and the radioactivity was counted on a TopCount (Packard). For the determination of non-specific binding, the cell suspension and [^125I]-labeled human eotaxin/CCL11 were incubated in the presence of 500 nM of unlabeled human eotaxin/CCL11. See, lino et al., “Molecular cloning and functional characterization of cynomolgus monkey (Macaca fascicularis) CC chemokine receptor, CCR3,” Cytokine 2002, 19, 276-286.

Ki (CCR3 receptor)	melting point	SMILES
100 to 500 nM	142 to 145 °C	Cc1ccc(C)c(Sc2ccc([N+](=O)[O-])cc2S(=O)(=O)N2CCNCC2)c1 [Compound 122, 1-(2-(2,5-Dimethylphenylthio)-5-nitrophenylsulfonyl)piperazine]
> 5 nM	130 to 137 °C	Cc1ccc(C)c(Sc2ccc([N+](=O)[O-])cc2S(=O)(=O)N2CCSCC2)c1 [Compound 116, 4-(2-(2,5-Dimethylphenylthio)-5-nitrophenylsulfonyl)thiomorpholine]
> 5 nM	144 to 147 °C	Cc1ccc(C)c(Oc2ccc([N+](=O)[O-])cc2S(=O)(=O)N2CCSCC2)c1 [Compound 117, 4-(2-(2,5-Dimethylphenoxy)-5-nitrophenylsulfonyl)thiomorpholine]
> 5 nM	141 to 143 °C	Cc1ccc(C)c(Sc2ccc([N+](=O)[O-])cc2S(=O)(=O)N2CCOCC2)c1 [Compound 112, 4-(2-(2,5-Dimethylphenylthio)-5-nitrophenylsulfonyl)morpholine]
> 5 nM	191 to 194 °C	O=[N+]([O-])c1ccc(Oc2cc(Cl)ccc2Cl)c(S(=O)(=O)N2CCSCC2)c1 [Compound 115, 4-(2-(2,5-Dichlorophenoxy)-5-nitrophenylsulfonyl)thiomorpholine]
> 5 nM	189 to 191 °C	O=[N+]([O-])c1ccc(Sc2cc(Cl)ccc2Cl)c(S(=O)(=O)N2CCSCC2)c1 [Compound 114, 4-(2-(2,5-Dichlorophenylthio)-5-nitrophenylsulfonyl)thiomorpholine]
> 5 nM	182 to 186 °C	O=[N+]([O-])c1ccc(Sc2cc(Cl)ccc2Cl)c(S(=O)(=O)N2CCOCC2)c1 [Compound 110, 4-(2-(2,5-Dichlorophenylthio)-5-nitrophenylsulfonyl)morpholine]

Second part, the compound before the results:

SMILES	Ki (CCR3 receptor)	melting point
CC1CN(S(=O)(=O)c2cc([N+](=O)[O-])ccc2Oc2cc(Cl)ccc2Cl)CC(C)N1 (stereo not shown) [Compound 104, 1-(2-(2,5-Dichlorophenoxy)-5-nitrophenylsulfonyl)-3,5-dimethylpiperazine]	10 to 25 nM	161 to 163 °C
O=[N+]([O-])c1ccc(Oc2cc(Cl)ccc2Cl)c(S(=O)(=O)N2CCOCC2)c1 [Compound 111, 4-(2-(2,5-Dichlorophenoxy)-5-nitrophenylsulfonyl)morpholine]	> 5 nM	168 to 170 °C
N#Cc1ccc(Oc2cc(F)ccc2F)c(S(=O)(=O)N2CCOCC2)c1 [Compound 58, 4-(2,5-Difluorophenoxy)-3-(morpholinosulfonyl)benzonitrile]	> 5 nM	165 to 168 °C
N#Cc1ccc(Sc2cc(Cl)ccc2Cl)c(S(=O)(=O)N2CCOCC2)c1 [Compound 82, 4-(2,5-Dichlorophenylthio)-3-(morpholinosulfonyl)benzonitrile]	100 to 500 nM	216 to 219 °C
